“And” between values parts separate entries of the source, which are not always exact repeats. Equal entries are not always repeated. Peptide text beside a SMILES is read from it.
What was measured:
mice = assay: Contact hypersensitivity assay; type: in vivo, mouse; details: TNCB hapten; ear thickness; expected
Description: In this example, the therapeutic activity of a human chemerin C15 peptide is tested in a contact hypersensitivity assay, which is an in vivo assay of cell-mediated immune function and a model for human allergic contact dermatitis. In this assay, epidermal cells are exposed to exogenous haptens which results in a delayed-type hypersensitive reaction that can be measured and quantified. The Langerhans cell, which is an Ia^+, bone marrow-derived, epidermal cell, initiates sensitization to haptens by presenting antigens to CD4-bearing T lymphocytes, which, in turn, secrete lymphokines and recruit other cells to the site of the reaction.
Contact hypersensitivity consists of the afferent or initial sensitizing phase, and the efferent or elicitation phase. During the efferent phase, when epidermal cells encounter a particular antigen to which they have previously been exposed, localized swelling occurs (in rodents) and in humans results in eczema of the skin.
In an exemplary protocol, mice are shaved and the skin of their abdomens exposed to a hapten. After 6 days (the afferent phase), the baseline ear thickness is measured prior to initiation of the efferent phase. Finally, the ear is treated epicutaneously with the hapten solution and ear thickness is measured at approximately 24 hr. […]

[1] = test system: K5.Stat3C recombinant mice; assay: K5.Stat3C mouse model of psoriasis (TPA induced lesions); type: in vivo; details: expected
Description: In this example, the therapeutic activity of a human chemerin C15 peptide is tested in a mouse model of psoriasis. K5.Stat3C recombinant mice resemble human psoriasis based on clinical, histological, immunophenotypic, and biochemical criteria used to evaluate animal models of psoriasis. The K5.Stat3C mice constitutively express activated […] in keritinocytes and epidermal hyperplasia upon stimulation with 12-0-tetradecanoylphorbol-13-acetate (TPA) topical treatment.
In an exemplary protocol, mice are treated topically on the ear with TPA (e.g. 3.4 nmol TPA in acetone) or acetone control to induce skin lesions 3 times per week for 4-8 weeks. Real-time PCR in skin samples is used to confirm upregulation of cytokine expression, including IL-23, IL012, TNF-α, IL-β, and/or IL-6. Following induction of skin lesions, formulations comprising the human chemerin C15 peptide or vehicle control are applied topically to the skin lesions daily for 6-12 days. Improvement in the lesions is assessed daily.

[2] = Franz diffusion cell skin penetration, C15 ointment; type: in vitro ADME, human
Description: The objective of the study was to determine whether human chemerin C15 peptide would diffuse through in vitro human skin maintained under flow-through conditions in Franz cells where the C15 peptide is administered as an ointment. Human chemerin C15 peptide was prepared as an ointment as described in Example 4. A 10% solution of the C15 ointment was prepare immediately prior to skin application. […] human skin obtained from abdominoplasty was maintained in tissue media and antibiotics and used within 3 days.
A standard Franz diffusion cell (LGA, Berkeley, Calif.) was used under static conditions (n=3). Approximately 200 μl of the 10% ointment solution was transferred to the surface of the skin and distributed on the surface by spatula. A thin liner was then applied for light pressure to the skin surface for 5 min after which the diffusion cell was occluded and maintained for 24 hours. After this time, the ointment was recovered by scraping a spatula over the skin surface and transferring the retained material to a 50/50 water-chloroform solution. The epidermis and dermis were then separated by heat and the epidermis extracted with a 50/50 water-chloroform solution. The epidermis was then transferred to a second tube and homogenized in PBS containing 0.1% protease inhibitor. The dermis was minced and homogenized in PBS containing 0.1% protease inhibitor. The receptor fluid was recovered and concentrated under vacuum. Ointment without C15 was applied to skin and the skin sampled in the same manner as a control (n=2).
C15 recovery from the dosing material, epidermis, and receptor fluid was determined by HPLC. C15 concentration in the dermis was determine by LC/MS. The skin surface and epidermis recoveries and epidermis homogenate samples were analyzed using the following reversed phase HPLC conditions:
The dermis samples were analyzed using the following LC/MS/MS conditions: […]

[3] = Stability of C15 in homogenates of frozen and fresh human skin; type: in vitro ADME
Description: An initial study was performed comparing stability of human C15 versus Mouse C15. Homogenates of frozen and fresh human skin were prepared to evaluate the degradation of C15 in skin. Frozen or fresh human skin were separately minced and homogenized in 3 ml water and the supernatant isolated. Supernatant was mixed with solutions of mouse or human C15 to yield a 0.5 mg/ml C15 solution. Each solution was incubated at 37° C. and samples were taken at 0, 1, 2 and 24 hours for analysis of C15 (FIG. 3).

[4] = test system: IFNγ/LPS stimulated human macrophages; assay: Cytokine secretion by IFNγ/LPS stimulated human macrophages (Luminex); type: cell-based; details: 16 hours post-stimulation
[5] = ointment, 24 hours, listed as C15
[6] = after 24 hours, 37° C., 0.5 mg/ml

## C[C@H](N)C(=O)NCC(=O)N[C@@H](CCC(=O)O)C(=O)N[C@@H](CC(=O)O)C(=O)N1CCC[C@H]1C(=O)N[C@@H](Cc1c[nH]cn1)C(=O)N[C@@H](CO)C(=O)N[C@@H](Cc1ccccc1)C(=O)N[C@@H](Cc1ccc(O)cc1)C(=O)N[C@@H](Cc1ccccc1)C(=O)N1CCC[C@H]1C(=O)NCC(=O)N[C@@H](CCC(N)=O)C(=O)N[C@@H](Cc1ccccc1)C(=O)N[C@@H](C)C(=O)O [C15 (human)] (H-AGEDPHSFYFPGQFA-OH; N-terminus and C-terminus assumed)
mice
  allergic response (contact hypersensitivity): prevention, suppression and/or treatment of the allergic response
[1]; topical daily for 6-12 days
  cytokine expression in the psoriatic lesions: decreased cytokine expression
[1]; visual inspection and histological examination
  psoriatic phenotype of the epidermis: improvement in the psoriatic phenotype of the epidermis
[2]; Ointment, fresh human skin, after 24 hrs
  [C15] in Receptor Fluid (5 mL): <10 nM
[2]; female, human, ointment, 24 hours, mass balance, read-out: Total % recovery
  recovery at 24 h: 104%
[2]; ointment
  epidermis and dermis combined, share of the applied dose: < 1%
[2]; ointment, 24 hours, HPLC LLQ 150 ng/ml
  Receptor fluid, C15: <LLQ
[2]; [5]
  Dermis homogenate, % of applied: 0.00% and 0.02% and 0.12%
  Epidermis, % of applied: 70.2% and 64.1% and 71.2%
  Epidermis, C15: 1.53 mg and 2.25 mg and 1.45 mg
  Skin Surface, % of applied: 33.6% and 33.3% and 40.6%
  Skin Surface, C15 recovered: 0.74 mg and 1.17 mg and 0.83 mg
[2]; ointment, 24 hours, mass balance, listed as C15
  Total % recovery: 97.4% and 111.8%
[3]; [6]
  C15 degradation in homogenate from fresh skin: 98%
  C15 degradation in homogenate from frozen skin: 25%
[3]; human vs mouse C15
  relative stability in skin homogenate: more stable than mouse C15
[4]; 1 pM
  inhibition of human macrophage secretion of IL-1β: approximately 45%
  inhibition of human macrophage secretion of RANTES: ~65%
[4]
  inhibition of human macrophage secretion of IL-12p40: approximately 55%

— patent publication US20140349943A1, “TOPICAL FORMULATIONS OF CHEMERIN C15 PEPTIDES FOR THE TREATMENT OF DERMATOLOGICAL CONDITIONS” (priority 2011, published 2014)
